Measurements from article PMC10182601, “Biological evaluation of novel gemcitabine analog in patient-derived xenograft models of pancreatic cancer” (BMC Cancer, 2023).
Counter-ions that a name gives are not always drawn.

How the values were obtained:
PPCL-192 cells [1] = assay: Cell cycle distribution (PI, flow cytometry), PPCL-192; type: cell-based, human; conditions: 24 h
Method: Cell cycle study was performed to determine the effect of 4NSG-SLN on the cell cycle; PPCL-192 and PPCL-46 cells (2 × 10^5 cells per well) were seeded in 6-well plates and cultured using DMEM medium supplemented with 10% FBS10 mM HEPES, 10% FBS, and 1% penicillin/streptomycin were seeded in 6-well plates and incubated at 37 °C. After the cells reached 75% confluence, they were exposed to different concentrations (5 μM,10 μM, and 20 µM) of GemHCl and 4NSG-SLN. After 24 h exposure, cells were harvested, washed with PBS, centrifuged at 300 × g for 5 min, resuspended the pellets in 100 μL of PBS, and passed through a 28 5/8 needle to disperse them into single cells. Fixation and permeation of cells were performed using cold 70% ethanol while vortexing. Cells were then stored at − 20 °C overnight. The cells were resuspended in 0.1 mg/mL RNase, stained with […] PI, and the phase distribution was examined using flow cytometry (FACScalibur-Becton Dickinson).

PPCL-192 cells [2] = assay: Cell migration (wound) assay, PPCL-192; type: cell-based, human; conditions: PPCL-192, 5 µM, 48 h
Method: (§1) A cell migration assay was conducted to determine the effect of 4NSG-SLN on PPCL-192 and PPCL-46 cell motility. The Ibidi cell culture inserts were used to grow the cells into two confluent monolayers separated by a "wound" for this assay. The cells were seeded into 24-well plates at a cell density of 2.5 × 10^5, 48 h at 37 °C. At 75% confluency, cells formed adherent monolayers on either side of the tissue culture insert. Before treatment, the cells were serum-starved by replacing complete media with base media (DMEM) and then further incubated for 48 h. After serum starvation, the inserts were gently removed to generate a gap or "wound" between the two confluent layers of cells, and the monolayers were washed with experimental media. Afterward, cells were exposed to 5 μM concentration of GemHCl and 4NSG-SLN treatments. Images of the cells invading the wound were then captured after 48 h with a Nikon Ti Eclipse microscope.

PPCL-46 cells = assay: Cell migration (wound) assay, PPCL-46; type: cell-based, human; conditions: PPCL-46, 5 µM, 48 h
Method: as §1

[3] = test system: PCa PDX tumor from Black patients; assay: Tumor efficacy in PDX mice bearing tumors from Black PCa patients; type: in vivo; conditions: 30 mg/kg Gem equivalent i.v. twice weekly for 3 weeks
Excerpt: (§2) The implantation of surgical tumor tissue into immuno-compromised mice was described previously. A viable portion of resected tissue 2 × 2 mm in size was briefly isolated immediately from surgically resected primary PCa specimens (from Blacks and White patients) with care to minimize critical ischemia time. The PCa tissues were then implanted subcutaneously into an 8-week-old mouse (The Jackson Laboratory, Bar Harbor, ME). The xenografts were allowed to grow to a maximum diameter of 1.5 cm before passage and in vitro culture.
(§3) Mice-bearing surgically implanted tumors obtained from Black and White patients with sizes of 70–100 mm^3 were randomized into groups as control, GemHCl, and 4NSG-SLN (n = 5/group). Baseline tumor volume was established, and dosing initiation began on day 1 with intravenous administration of 30 mg/kg Gem (twice weekly for 3 weeks) with an equivalent dose of GemHCl and 4NSG-SLN [42]. Once tumors became palpable, their volume was measured thrice per week, and the mice's weight was recorded twice weekly. Tumor volumes were measured using digital calipers and calculated using the following equation: V = (L*(W)^2)/2, where V is the volume (mm^3), W(width) is the smaller of two perpendicular tumor axes, and the L (length) is the larger of two vertical axes. Mean tumor volume growth curves were calculated for each treatment group.

[4] = test system: PCa PDX tumor from White patients; assay: Tumor efficacy in PDX mice bearing tumors from White PCa patients; type: in vivo; conditions: 30 mg/kg Gem equivalent i.v. twice weekly for 3 weeks
Excerpt: as §2, §3

HER2 = assay: Immunohistochemistry of PDX tumor tissue, HER2; type: in vivo, mice
VEGFR = assay: Immunohistochemistry of PDX tumor tissue, VEGFR; type: in vivo, mice; conditions: for VEGF % Moderate Positive Cells / VEGF % Positive / VEGF % Weak Positive Cells / VEGF H Score / VEGF % Strong Positive Cells: IHC
Method: [The source words this procedure for another target and reports this target under the same test.] Tissue samples from mice bearing tumors from Black and White PCa patients post treatments with GemHCl and 4NSG-SLN were excised and immediately washed with PBS, fixed (10% buffered formalin) for 24 h, and transferred to 70% ethanol for histopathological analysis. Histology was performed by HistoWiz Inc. (Histowiz.com) according to manufacturer protocol. Samples were embedded in paraffin, and 4 μm sections were prepared. Immunohistochemistry was performed on a Bond Rx autostainer (Leica Biosystems) with enzyme treatment (1:1000) using standard protocols (https://home.histowiz.com/faq/). Samples were incubated overnight with primary antibodies (Antibodies used were rat monoclonal F4/80 primary antibody (eBioscience, 14–4801, and 1:200), and immunohistochemical staining was done using rabbit anti-rat secondary (Vector Labs, 1:100). Bond Polymer Refine Detection was used per the manufacturer's protocol (Leica Biosystems). After staining, sections were dehydrated and filmed, coverslipped using a Tissue-Tek Prisma coverslip (Sakura). Whole slide scanning (40x) was performed on an Aperio AT2 (Leica Biosystems).

[5] = BT PDX tumor tissue after treatment, IHC
[6] = BT and WT PDX tumor tissues, 40X
[7] = WT PDX tumor tissue after treatment, IHC
[8] = BT PDX tumor tissue after treatment
[9] = WT PDX tumor tissue after treatment

For `Nc1ccn([C@@H]2O[C@H](CO)[C@@H](O)C2(F)F)c(=O)n1` [GemHCl, Gemcitabine hydrochloride], the “%G1” value (PPCL-192 cells [1]; PPCL-192, 5 μM) was 71.08%, the “%G2” value (PPCL-192 cells [1]; PPCL-192, 5 μM) was 11.05% and the “%S” value (PPCL-192 cells [1]; PPCL-192, 5 μM) was 17.87%. For the same compound, the “%G1” value (PPCL-192 cells [1]; PPCL-192, 10 μM) was 74.75%, the “%G2” value (PPCL-192 cells [1]; PPCL-192, 10 μM) was 9.59% and the “%S” value (PPCL-192 cells [1]; PPCL-192, 10 μM) was 15.66%. For the same compound, the “%G1” value (PPCL-192 cells [1]; PPCL-192, 20 μM) was 79.91%, the “%G2” value (PPCL-192 cells [1]; PPCL-192, 20 μM) was 8.23% and the “%S” value (PPCL-192 cells [1]; PPCL-192, 20 μM) was 11.86%. For the same compound, the “Number of cells migrated” value (PPCL-192 cells [2]) was 84 ± 3.1, the “Number of cells migrated” value (PPCL-46 cells) was 120 ± 3.8 and the “Mean terminal tumor volume” value ([3]; day 1, BT PDX mice) was 12.5 ± 6 mm^3. For the same compound, the “Mean terminal tumor volume” value ([3]; day 3, BT PDX mice) was 25.0 ± 12 mm^3, the “Mean terminal tumor volume” value ([3]; day 5, BT PDX mice) was 35.7 ± 18 mm^3 and the “Mean terminal tumor volume” value ([3]; day 7, BT PDX mice) was 73.0 ± 21 mm^3. The “Mean terminal tumor volume” value ([3]; day 11, BT PDX mice) was 662. ± 198 mm^3, the “Mean terminal tumor volume” value ([3]; day 13, BT PDX mice) was 767. ± 194 mm^3 and the “Mean terminal tumor volume” value ([3]; day 15, BT PDX mice) was 911. ± 152 mm^3. For the same compound, the “Mean terminal tumor volume” value ([3]; day 17, BT PDX mice) was 990. ± 151 mm^3, the “Mean terminal tumor volume” value ([3]; day 19, BT PDX mice) was 1129 ± 172 mm^3 and the “Mean terminal tumor volume” value ([3]; day 21, BT PDX mice) was 1204 ± 184 mm^3. For the same compound, the “Mean terminal tumor volume” value ([3]; day 23, BT PDX mice) was 1456 ± 154 mm^3, the “Mean terminal tumor volume” value ([3]; day 25, BT PDX mice) was 1681 ± 172 mm^3 and the “Mean terminal tumor volume” value ([4]; day 0, WT (patient tumor) PDX mice) was 0 mm^3. The “Mean terminal tumor volume” value ([4]; day 1, WT PDX mice) was 13.9 ± 2 mm^3, the “Mean terminal tumor volume” value ([4]; day 3, WT PDX mice) was 27.8 ± 4 mm^3 and the “Mean terminal tumor volume” value ([4]; day 5, WT PDX mice) was 39.7 ± 5 mm^3. For the same compound, the “Mean terminal tumor volume” value ([4]; day 7, WT PDX mice) was 43.5 ± 16 mm^3, the “Mean terminal tumor volume” value ([4]; day 9, WT PDX mice) was 177.8 ± 60 mm^3 and the “Mean terminal tumor volume” value ([4]; day 11, WT PDX mice) was 583.2 ± 227 mm^3. The “Mean terminal tumor volume” value ([4]; day 13, WT PDX mice) was 646.9 ± 240 mm^3, the “Mean terminal tumor volume” value ([4]; day 15, WT PDX mice) was 752.6 ± 241 mm^3 and the “Mean terminal tumor volume” value ([4]; day 17, WT PDX mice) was 850.8 ± 205 mm^3. The “Mean terminal tumor volume” value ([4]; day 19, WT PDX mice) was 868.2 ± 294 mm^3, the “Mean terminal tumor volume” value ([4]; day 21, WT PDX mice) was 1053 ± 86 mm^3 and the “Mean terminal tumor volume” value ([4]; day 23, WT PDX mice) was 1344.7 ± 171 mm^3. The “Mean terminal tumor volume” value ([4]; day 25, WT PDX mice) was 1748.2 ± 223 mm^3, the “HER2 % Moderate Positive Cells” value (HER2; [5]) was 7.2 ± 4.3% and the “HER2 % Positive” value (HER2; [5]) was 17.2 ± 1.0%. For the same compound, the “HER2 % Strong Positive Cells” value (HER2; [5]) was 3.7 ± 0.8%, the “HER2 % Weak Positive Cells” value (HER2; [5]) was 9.3 ± 1.4% and the “HER2 %Negative Cells” value (HER2; [5]) was 62.6 ± 3.4%. For the same compound, the “HER2 H Score” value (HER2; [5]) was 31.8, the “HER2 expression in representative IHC images” value (HER2; [6]) was “moderate to high” and the “HER2 % Positive” value (HER2; [7]) was 19.9 ± 1.5%. For the same compound, the “HER2 % Strong Positive Cells” value (HER2; [7]) was 3.6 ± 1.2%, the “HER2 % Weak Positive Cells” value (HER2; [7]) was 8.9 ± 0.8% and the “HER2 %Negative Cells” value (HER2; [7]) was 57.4 ± 7.3%. The “HER2 H Score” value (HER2; [7]) was 30.9, the “VEGF % Moderate Positive Cells” value (VEGFR; [8]) was 0.6 ± 0.2% and the “VEGF % Positive” value (VEGFR; [8]) was 27 ± 0.4%. For the same compound, the “VEGF % Weak Positive Cells” value (VEGFR; [8]) was 1.2 ± 0.3%, the “VEGF H Score” value (VEGFR; [8]) was 4.7 and the “VEGF % Strong Positive Cells” value (VEGFR; BT PDX tumor tissue after treatment, first line of this name (r21)) was 0.5 ± 0.1%. The “VEGF % Strong Positive Cells” value (VEGFR; BT PDX tumor tissue after treatment, second line of this name (r22)) was 70.7 ± 7.8%, the “VEGFR expression in representative IHC images” value (VEGFR; [6]) was “moderate to high” and the “VEGF % Moderate Positive Cells” value (VEGFR; [9]) was 0.6 ± 0.1%. The “VEGF % Positive” value (VEGFR; [9]) was 30 ± 1.4%, the “VEGF % Weak Positive Cells” value (VEGFR; [9]) was 0.7 ± 0.3% and the “VEGF H Score” value (VEGFR; [9]) was 10.0. For the same compound, the “VEGF % Strong Positive Cells” value (VEGFR; WT PDX tumor tissue after treatment, first line of this name (r21)) was 0.7 ± 0.3% and the “VEGF % Strong Positive Cells” value (VEGFR; WT PDX tumor tissue after treatment, second line of this name (r22)) was 68 ± 3.8%.
